Holding throughout (assay): Kinase selectivity, scanMAX Kinase assay panel (DiscoverX), % control at 1 uM
Format in all cases: binding

In experiment [1] the target is T1, scanMAX Kinase assay panel (Homo sapiens, UniProt O60285).
T1 construct: purchased DiscoverX
T1 sequence (O60285 1-661): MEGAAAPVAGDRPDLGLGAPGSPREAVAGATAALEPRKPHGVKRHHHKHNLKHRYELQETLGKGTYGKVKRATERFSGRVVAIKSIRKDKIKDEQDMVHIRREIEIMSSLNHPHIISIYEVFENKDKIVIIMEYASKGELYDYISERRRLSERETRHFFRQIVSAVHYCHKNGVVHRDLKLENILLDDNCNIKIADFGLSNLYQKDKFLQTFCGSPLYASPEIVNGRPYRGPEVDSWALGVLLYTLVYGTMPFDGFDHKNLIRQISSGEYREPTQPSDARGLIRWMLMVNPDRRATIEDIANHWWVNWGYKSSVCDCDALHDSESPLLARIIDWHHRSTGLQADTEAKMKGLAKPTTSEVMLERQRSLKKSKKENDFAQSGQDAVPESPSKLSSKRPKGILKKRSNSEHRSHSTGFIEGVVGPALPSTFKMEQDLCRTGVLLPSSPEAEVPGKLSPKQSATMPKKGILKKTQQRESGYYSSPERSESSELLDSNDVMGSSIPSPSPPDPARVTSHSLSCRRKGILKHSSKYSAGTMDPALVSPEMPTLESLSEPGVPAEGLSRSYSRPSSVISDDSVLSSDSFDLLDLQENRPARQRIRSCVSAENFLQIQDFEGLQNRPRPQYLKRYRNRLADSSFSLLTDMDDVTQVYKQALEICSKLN
As to conditions: ARK5; 1 uM; read-out: Percent Control (%). On the procedure:
(§1) The following experiment was performed to evaluate the inhibitory activity of the compound of the present invention on more enzymes.
(§2) Particularly, among the compounds of the present invention, the compounds of Example 1, Example 12 and Example 78 were selected and assigned to DiscoverX to measure the kinase selectivity. The experiment was performed by using scanMAX™ Kinase assay panel.
(§3) At this time, the concentration of the drug to be treated to the enzyme was adjusted to 1 uM in DMSO, and the control percentage (% control) was determined according to the following Equation 1. [Example Compound−Positive Control/Negative Control−Positive Control]×100 [Equation 1]
(§4) The enzyme selectivity of the compound of the present invention was judged to be active for the enzyme if the % control was <35 (i.e. less than 35%) for each enzyme.

The target of experiment [2] is T2, scanMAX Kinase assay panel (Homo sapiens, UniProt O95747).
T2 construct: purchased DiscoverX
The settings on record: OSR1; 1 uM; read-out: Percent Control (%). On the procedure:
as §1, §2, §3, §4

For experiment [3], the target named is T3, scanMAX Kinase assay panel (Homo sapiens, UniProt P24723).
T3 construct: purchased DiscoverX
As to conditions: PRKCH; 1 uM; read-out: Percent Control (%). On the procedure:
as §1, §2, §3, §4

The target of experiment [4] is T4, scanMAX Kinase assay panel (Homo sapiens, UniProt Q99683).
T4 construct: purchased DiscoverX
T4 sequence (Q99683 1-1374): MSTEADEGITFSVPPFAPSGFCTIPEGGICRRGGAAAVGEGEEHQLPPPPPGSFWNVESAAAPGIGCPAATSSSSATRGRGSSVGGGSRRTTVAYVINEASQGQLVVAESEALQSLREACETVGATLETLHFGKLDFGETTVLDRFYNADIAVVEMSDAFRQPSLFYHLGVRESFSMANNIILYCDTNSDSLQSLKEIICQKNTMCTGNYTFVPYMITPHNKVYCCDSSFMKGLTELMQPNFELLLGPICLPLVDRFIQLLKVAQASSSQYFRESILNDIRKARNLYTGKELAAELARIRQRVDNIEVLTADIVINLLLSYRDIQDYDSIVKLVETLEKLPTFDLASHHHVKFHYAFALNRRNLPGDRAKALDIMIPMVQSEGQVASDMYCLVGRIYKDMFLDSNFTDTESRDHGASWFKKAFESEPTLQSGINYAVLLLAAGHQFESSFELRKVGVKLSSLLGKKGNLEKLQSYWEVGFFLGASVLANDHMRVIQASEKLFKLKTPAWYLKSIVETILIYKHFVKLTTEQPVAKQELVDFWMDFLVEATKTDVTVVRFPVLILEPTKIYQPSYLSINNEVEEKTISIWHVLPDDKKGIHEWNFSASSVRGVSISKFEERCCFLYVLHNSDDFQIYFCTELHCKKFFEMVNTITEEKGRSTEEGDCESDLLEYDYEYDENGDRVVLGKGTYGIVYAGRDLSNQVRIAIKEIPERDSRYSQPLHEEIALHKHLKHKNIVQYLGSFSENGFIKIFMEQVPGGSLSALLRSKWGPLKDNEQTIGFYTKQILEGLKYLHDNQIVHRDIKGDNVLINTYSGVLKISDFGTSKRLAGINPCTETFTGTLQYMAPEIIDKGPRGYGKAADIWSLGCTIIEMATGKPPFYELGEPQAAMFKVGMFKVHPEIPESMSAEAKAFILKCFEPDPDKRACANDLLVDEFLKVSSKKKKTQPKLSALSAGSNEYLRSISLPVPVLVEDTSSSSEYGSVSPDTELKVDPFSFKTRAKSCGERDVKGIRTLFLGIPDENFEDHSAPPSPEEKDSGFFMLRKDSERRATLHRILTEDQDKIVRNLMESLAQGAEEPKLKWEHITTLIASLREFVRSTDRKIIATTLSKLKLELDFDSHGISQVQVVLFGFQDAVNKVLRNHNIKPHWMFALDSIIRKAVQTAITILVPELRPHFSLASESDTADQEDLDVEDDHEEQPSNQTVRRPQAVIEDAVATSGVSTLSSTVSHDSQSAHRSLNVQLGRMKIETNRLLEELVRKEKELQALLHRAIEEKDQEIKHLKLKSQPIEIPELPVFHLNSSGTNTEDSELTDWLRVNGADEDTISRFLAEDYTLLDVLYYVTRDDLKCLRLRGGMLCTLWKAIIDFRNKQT
As to conditions: ASK1; 1 uM; read-out: Percent Control (%). On the procedure:
as §1, §2, §3, §4

Experiment [5] deals with T5, scanMAX Kinase assay panel (Homo sapiens, UniProt Q9UM73).
T5 construct: purchased DiscoverX
As to conditions: ALK; 1 uM; read-out: Percent Control (%). On the procedure: as §1, §2, §3, §4

From patent publication US10870647B2, “Imidazopyridine derivative, method for preparing same, and pharmaceutical composition containing same as active ingredient for preventing or treating cancer” (DAEGU-GYEONGBUK MEDICAL INNOVATION FOUNDATION, priority 2016, dated 2020) come the findings set out here.

T3 sequence (P24723 whole entry): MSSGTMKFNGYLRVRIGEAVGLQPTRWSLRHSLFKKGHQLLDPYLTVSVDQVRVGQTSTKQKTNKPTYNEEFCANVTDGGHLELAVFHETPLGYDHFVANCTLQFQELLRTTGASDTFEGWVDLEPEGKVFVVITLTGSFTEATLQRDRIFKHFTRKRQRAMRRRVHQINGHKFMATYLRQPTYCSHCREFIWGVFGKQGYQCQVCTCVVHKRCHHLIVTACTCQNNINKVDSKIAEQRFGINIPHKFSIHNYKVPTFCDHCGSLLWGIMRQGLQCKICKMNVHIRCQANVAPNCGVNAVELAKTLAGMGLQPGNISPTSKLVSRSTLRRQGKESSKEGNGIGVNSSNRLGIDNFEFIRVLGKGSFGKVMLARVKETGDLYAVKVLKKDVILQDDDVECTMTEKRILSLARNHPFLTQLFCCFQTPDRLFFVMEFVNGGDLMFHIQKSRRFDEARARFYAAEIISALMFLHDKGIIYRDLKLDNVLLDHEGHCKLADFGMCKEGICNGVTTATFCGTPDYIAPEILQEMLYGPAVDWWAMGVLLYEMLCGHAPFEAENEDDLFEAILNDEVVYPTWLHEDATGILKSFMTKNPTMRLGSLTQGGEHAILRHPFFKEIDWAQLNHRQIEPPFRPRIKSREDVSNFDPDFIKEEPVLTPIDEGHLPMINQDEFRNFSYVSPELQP
T2 sequence (O95747 whole entry): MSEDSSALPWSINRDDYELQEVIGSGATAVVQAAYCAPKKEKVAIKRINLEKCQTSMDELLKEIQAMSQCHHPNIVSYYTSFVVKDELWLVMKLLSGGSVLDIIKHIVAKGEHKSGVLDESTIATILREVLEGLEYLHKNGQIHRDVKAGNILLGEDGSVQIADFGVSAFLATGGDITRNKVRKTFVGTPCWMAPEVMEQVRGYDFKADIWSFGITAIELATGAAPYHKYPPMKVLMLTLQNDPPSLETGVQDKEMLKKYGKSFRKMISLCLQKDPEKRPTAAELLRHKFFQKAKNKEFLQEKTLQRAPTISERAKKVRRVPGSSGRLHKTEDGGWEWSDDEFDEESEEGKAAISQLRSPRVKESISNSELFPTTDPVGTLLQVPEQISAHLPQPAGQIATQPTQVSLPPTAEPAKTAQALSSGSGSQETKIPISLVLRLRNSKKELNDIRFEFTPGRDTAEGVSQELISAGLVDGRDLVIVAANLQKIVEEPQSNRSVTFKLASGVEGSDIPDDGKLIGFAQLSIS
T5 sequence (Q9UM73 19-1620): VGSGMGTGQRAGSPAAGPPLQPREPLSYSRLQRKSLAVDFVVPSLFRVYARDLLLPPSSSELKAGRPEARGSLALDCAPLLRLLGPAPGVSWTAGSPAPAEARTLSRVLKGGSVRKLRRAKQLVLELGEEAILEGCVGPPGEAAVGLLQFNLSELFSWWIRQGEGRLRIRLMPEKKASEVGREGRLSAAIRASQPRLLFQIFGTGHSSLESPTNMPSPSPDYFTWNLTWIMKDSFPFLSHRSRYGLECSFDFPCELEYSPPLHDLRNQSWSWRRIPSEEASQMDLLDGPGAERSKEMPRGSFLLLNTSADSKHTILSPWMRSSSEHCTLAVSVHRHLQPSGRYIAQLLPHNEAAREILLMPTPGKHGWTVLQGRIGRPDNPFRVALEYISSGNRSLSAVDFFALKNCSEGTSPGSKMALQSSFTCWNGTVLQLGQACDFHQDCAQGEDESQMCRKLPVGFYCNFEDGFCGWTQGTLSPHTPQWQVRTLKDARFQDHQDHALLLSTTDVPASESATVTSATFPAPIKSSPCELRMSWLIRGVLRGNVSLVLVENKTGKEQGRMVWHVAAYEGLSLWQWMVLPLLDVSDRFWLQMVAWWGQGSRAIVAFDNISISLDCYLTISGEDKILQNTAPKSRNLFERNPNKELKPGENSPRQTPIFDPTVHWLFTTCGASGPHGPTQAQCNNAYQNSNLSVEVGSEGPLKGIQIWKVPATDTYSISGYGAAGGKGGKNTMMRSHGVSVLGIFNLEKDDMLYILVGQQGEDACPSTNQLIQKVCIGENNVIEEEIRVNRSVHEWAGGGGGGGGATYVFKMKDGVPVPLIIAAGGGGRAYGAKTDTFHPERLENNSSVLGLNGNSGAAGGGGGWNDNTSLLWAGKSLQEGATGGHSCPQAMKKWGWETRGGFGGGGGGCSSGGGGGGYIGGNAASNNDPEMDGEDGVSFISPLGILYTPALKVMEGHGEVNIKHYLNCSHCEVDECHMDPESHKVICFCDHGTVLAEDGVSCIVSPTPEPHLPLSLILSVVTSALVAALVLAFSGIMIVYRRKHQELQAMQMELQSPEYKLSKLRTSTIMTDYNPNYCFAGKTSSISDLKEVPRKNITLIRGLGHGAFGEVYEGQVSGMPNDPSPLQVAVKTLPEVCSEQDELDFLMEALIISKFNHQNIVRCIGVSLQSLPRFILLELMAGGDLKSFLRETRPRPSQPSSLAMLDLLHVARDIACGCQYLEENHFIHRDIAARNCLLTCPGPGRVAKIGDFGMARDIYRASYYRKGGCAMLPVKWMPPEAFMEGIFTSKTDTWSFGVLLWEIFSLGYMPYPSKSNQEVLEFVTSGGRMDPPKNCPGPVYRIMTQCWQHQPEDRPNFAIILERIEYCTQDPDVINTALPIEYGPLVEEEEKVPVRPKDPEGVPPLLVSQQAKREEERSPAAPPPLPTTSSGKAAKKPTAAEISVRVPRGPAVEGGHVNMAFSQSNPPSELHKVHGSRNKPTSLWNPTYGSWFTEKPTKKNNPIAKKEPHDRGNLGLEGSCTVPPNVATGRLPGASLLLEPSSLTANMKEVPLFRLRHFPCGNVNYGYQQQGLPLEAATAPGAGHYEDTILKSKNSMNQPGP

With `Cc1ccc(C(=O)Nc2ccc(CN3CCN(C)CC3)c(C(F)(F)F)c2)cc1C#Cc1cnc2c(Nc3cnn(C)c3)cccn12` [Example 1, 4-methyl-3-((8-((1-methyl-1H-pyrazol-4-yl)amino)imidazo[1,2-a]pyridin-3-yl)ethynyl)-N-(4-((4-methylpiperazin-1-yl)methyl)-3-(trifluoromethyl)phenyl)benzamide], the remaining binding at 1 µM is 99% in experiment [1]; 88% in experiment [2]; 100% in experiment [3]; 100% in experiment [4]; 70% in experiment [5].

Take `Cc1ccc(NC(=O)C2(C(=O)Nc3ccc(F)cc3)CC2)cc1C#Cc1cnc2c(Nc3cnn(C(C)C)c3)cccn12` [Example 78]: the remaining binding at 1 µM worked out at 94% in experiment [1]; 100% in experiment [2]; 100% in experiment [3]; 100% in experiment [4]; 100% in experiment [5].

On to `Cc1cn(-c2cc(NC(=O)c3ccc(C)c(C#Cc4cnc5c(Nc6cnn(C)c6)cccn45)c3)cc(C(F)(F)F)c2)cn1` [Example 12, 4-methyl-N-(3-(4-methyl-1H-imidazol-1-yl)-5-(trifluoromethyl)phenyl)-3-((8-((1-methyl-1H-pyrazol-4-yl)amino)imidazo[1,2-a]pyridin-3-yl)ethynyl)benzamide], for which the remaining binding at 1 µM in experiment [1] was found to be 100%; in experiment [2] it was 100%; in experiment [3], 100%; in experiment [4], 95%; in experiment [5] it was 100%.
